# Results from patent US10568879B2 (GALAPAGOS NV, priority 2015, dated 2020).
# Experiments:
# [1] = target: T1, GPR84 (Homo sapiens, UniProt Q9NQS5); assay: GPR84 [35S]GTPγS binding assay; type: biochemical; conditions: 3,3′-diindolylmethane at EC80; membranes from stable cell line over expressing GPR84
# T1 construct: expressed in transfected cells
# Method in brief: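 Antagonist-mode [35S]GTPγS binding on membranes from a GPR84-overexpressing stable line (GDP-preincubated), stimulated with 3,3′-diindolylmethane at EC80. Buffer 20 mM Tris pH 7.5, 5 mM MgCl2, 250 mM NaCl, saponin; 0.1 nM [35S]GTPγS, 90 min at room temperature, SPA bead read-out.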
# [2] = test system: human neutrophils; assay: Human neutrophil migration assay; type: cell-based; conditions: Homo sapiens, Neutrophil; embelin at EC80 as chemotactic agent; 1 h at 37° C.; read-out: Human neutrophil migration IC50
# Protocol: The activity of GPR84 agonists and antagonists can therefore be assayed in a human neutrophil migration assay. The human neutrophil migration assay makes use of freshly isolated human neutrophils from buffy coats that are subsequently used in a functional chemotaxis assay setup. […] After 1 h of incubation at 37° C. and 5% CO2, the number of migrated neutrophils in the lower compartment can be quantified by measuring the ATP content using ATPlite™ Luminescence Assay System. A human buffy coat suspension is diluted with an equal volume of ice cold DPBS. 20 mL of the diluted buffy coat suspension is gently mixed with 4 mL of ACD buffer (140 mM citric acid, 200 mM sodium citrate and 220 mM dextrose). Then, 12 mL of a 6% dextran/0.9% NaCl solution (15 g dextran T2000 and 2.25 g NaCl dissolved in 250 mL H2O) is added to the mixture and the samples are inverted gently up to 20 times. The total volume is transferred to a new recipient and incubated at room temperature to allow sedimentation of red blood cells. The yellowish upper fraction is then transferred to a clean centrifugation tube and centrifuged for 12 min at 1300 rpm and 4° C. After centrifugation, the supernatant is discarded and the remaining cell pellet is rapidly resuspended in 12 mL of ice-cold H2O to perform a red blood cell lysis by osmotic burst. After 20 seconds, 4 mL of ice-cold 0.6 M KCl is added to restore salt concentration. Samples are mixed carefully and centrifuged for 6 min at 1300 rpm and 4° C. The supernatant is discarded and the red blood cell lysis procedure is repeated one more time. […] A neutrophil cell suspension of 8.9×10^6 cells per mL is prepared in chemotaxis buffer and 180 μL per well is plated in a 96-well V-bottom plate. 20 μL of test compound solution in chemotaxis buffer is added to the 180 μL cell suspension. The mixture is incubated at room temperature for 30 min with intermediate gentle resuspension of the cells after 15 min. […] After 1 h at 37° C., 5% CO2 in a humidified incubator, the upper plate of the Transwell® system is gently removed. […] After incubation, 270 μL of cell lysate is then transferred onto a white 96-well plate for quantification by a luminescence plate reader. The relative luminescent signal measured is considered linearly related to the number of cells having migrated from the upper compartment into the receiver well.
# T1 sequence (Q9NQS5 whole entry): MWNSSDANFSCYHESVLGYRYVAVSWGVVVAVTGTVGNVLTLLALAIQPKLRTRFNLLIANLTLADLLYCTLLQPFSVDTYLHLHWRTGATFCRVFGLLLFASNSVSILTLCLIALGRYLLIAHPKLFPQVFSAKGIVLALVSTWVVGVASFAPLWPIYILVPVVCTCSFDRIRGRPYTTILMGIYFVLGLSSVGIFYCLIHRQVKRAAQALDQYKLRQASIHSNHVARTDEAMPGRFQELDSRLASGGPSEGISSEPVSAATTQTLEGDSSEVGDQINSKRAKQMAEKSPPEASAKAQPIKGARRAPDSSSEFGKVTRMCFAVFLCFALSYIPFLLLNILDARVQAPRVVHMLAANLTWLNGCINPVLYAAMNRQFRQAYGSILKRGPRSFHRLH
SMILES,IC50 [1],IC50 [2]
"Cc1c2n(c(OCC3CCCO3)cc1=O)CCc1cc(OCc3ccccn3)ccc1-2 (stereo not drawn) [Compound 45, 1-methyl-9-(2-pyridylmethoxy)-4-(tetrahydrofuran-2-ylmethoxy)-6,7-dihydrobenzo[a]quinolizin-2-one]",0.01 to 100 nM,100 to 500 nM
"Cc1c2n(c(OCC3CCCCO3)cc1=O)CCc1cc(OCc3ccccn3)ccc1-2 (stereo not drawn) [Compound 46, 1-methyl-9-(2-pyridylmethoxy)-4-(tetrahydropyran-2-ylmethoxy)-6,7-dihydrobenzo[a]quinolizin-2-one]",0.01 to 100 nM,0.01 to 100 nM
"Cc1c2n(c(OCC3CCCCO3)cc1=O)CCc1cc(OCC3CCCOC3)ccc1-2 (stereo not drawn) [Compound 48, 1-methyl-4-(tetrahydropyran-2-ylmethoxy)-9-(tetrahydropyran-3-ylmethoxy)-6,7-dihydrobenzo[a]quinolizin-2-one]",0.01 to 100 nM,0.01 to 100 nM
"Cc1c2n(c(OC[C@@H]3COCCO3)cc1=O)CCc1cc(OCC3CCCOC3)ccc1-2 (stereo partly drawn) [Compound 49, 4-[[(2S)-1,4-dioxan-2-yl]methoxy]-1-methyl-9-(tetrahydropyran-3-ylmethoxy)-6,7-dihydrobenzo[a]quinolizin-2-one]",0.01 to 100 nM,0.01 to 100 nM
"Cc1ccc(COc2ccc3c(c2)CCn2c(OCC4CCCO4)cc(=O)c(C)c2-3)cn1 (stereo not drawn) [Compound 50, 1-methyl-9-[(6-methyl-3-pyridyl)methoxy]-4-(tetrahydrofuran-2-ylmethoxy)-6,7-dihydrobenzo[a]quinolizin-2-one]",0.01 to 100 nM,0.01 to 100 nM
"Cc1ccc(COc2ccc3c(c2)CCn2c(OCC4CCCCO4)cc(=O)c(C)c2-3)cn1 (stereo not drawn) [Compound 51, 1-methyl-9-[(6-methyl-3-pyridyl)methoxy]-4-(tetrahydropyran-2-ylmethoxy)-6,7-dihydrobenzo[a]quinolizin-2-one]",0.01 to 100 nM,0.01 to 100 nM
"Cc1noc(COc2ccc3c(c2)CCn2c(OC[C@@H]4COCCO4)cc(=O)c(C)c2-3)n1 [Compound 58, 4-[[(2S)-1,4-dioxan-2-yl]methoxy]-1-methyl-9-[(3-methyl-1,2,4-oxadiazol-5-yl)methoxy]-6,7-dihydrobenzo[a]quinolizin-2-one]",0.01 to 100 nM,0.01 to 100 nM
"Cc1c2n(c(OC[C@@H]3COCCO3)cc1=O)CCc1cc(OCC(F)F)ccc1-2 [Compound 61, 9-(2,2-difluoroethoxy)-4-[[(2S)-1,4-dioxan-2-yl]methoxy]-1-methyl-6,7-dihydrobenzo[a]quinolizin-2-one]",0.01 to 100 nM,0.01 to 100 nM
"Cc1c2n(c(OC[C@@H]3COCCO3)cc1=O)CCc1cc(N3CCOCC3)ccc1-2 [Compound 63, 4-[[(2S)-1,4-dioxan-2-yl]methoxy]-1-methyl-9-morpholino-6,7-dihydrobenzo[a]quinolizin-2-one]",0.01 to 100 nM,100 to 500 nM
"Cc1c2n(c(OC[C@@H]3COCCO3)cc1=O)CCc1cc(N3CCC(F)(F)CC3)ccc1-2 [Compound 65, 9-(4,4-difluoro-1-piperidyl)-4-[[(2S)-1,4-dioxan-2-yl]methoxy]-1-methyl-6,7-dihydrobenzo[a]quinolizin-2-one]",0.01 to 100 nM,0.01 to 100 nM
"Cc1c2n(c(OC[C@@H]3COCCO3)cc1=O)CCc1cc(N3CCN(C(=O)C4CC4)CC3)ccc1-2 [Compound 69, 9-[4-(cyclopropanecarbonyl)piperazin-1-yl]-4-[[(2S)-1,4-dioxan-2-yl]methoxy]-1-methyl-6,7-dihydrobenzo[a]quinolizin-2-one]",0.01 to 100 nM,0.01 to 100 nM
"Cc1c2n(c(OC[C@@H]3COCCO3)cc1=O)CCc1cc(NC(=O)C3CC3)ccc1-2 [Compound 70, N-[4-[[(2S)-1,4-dioxan-2-yl]methoxy]-1-methyl-2-oxo-6,7-dihydrobenzo[a]quinolizin-9-yl]cyclopropanecarboxamide]",0.01 to 100 nM,0.01 to 100 nM
"COC(=O)N1CC=C(c2ccc3c(c2)CCn2c(OC[C@@H]4COCCO4)cc(=O)c(C)c2-3)CC1 [Compound 76, methyl 4-[4-[[(2S)-1,4-dioxan-2-yl]methoxy]-1-methyl-2-oxo-6,7-dihydrobenzo[a]quinolizin-9-yl]-3,6-dihydro-2H-pyridine-1-carboxylate]",0.01 to 100 nM,0.01 to 100 nM
"CCOC(=O)N1CC=C(c2ccc3c(c2)CCn2c(OC[C@@H]4COCCO4)cc(=O)c(C)c2-3)CC1 [Compound 77, ethyl 4-[4-[[(2S)-1,4-dioxan-2-yl]methoxy]-1-methyl-2-oxo-6,7-dihydrobenzo[a]quinolizin-9-yl]-3,6-dihydro-2H-pyridine-1-carboxylate]",0.01 to 100 nM,0.01 to 100 nM
"Cc1c2n(c(OC[C@@H]3COCCO3)cc1=O)CCc1cc(C3=CCN(C(=O)OC(C)C)CC3)ccc1-2 [Compound 78, isopropyl 4-[4-[[(2S)-1,4-dioxan-2-yl]methoxy]-1-methyl-2-oxo-6,7-dihydrobenzo[a]quinolizin-9-yl]-3,6-dihydro-2H-pyridine-1-carboxylate]",0.01 to 100 nM,0.01 to 100 nM
"Cc1c2n(c(OC[C@@H]3COCCO3)cc1=O)CCc1cc(C3=CCN(C(=O)OCC(F)(F)F)CC3)ccc1-2 [Compound 79, 2,2,2-trifluoroethyl 4-[4-[[(2S)-1,4-dioxan-2-yl]methoxy]-1-methyl-2-oxo-6,7-dihydrobenzo[a]quinolizin-9-yl]-3,6-dihydro-2H-pyridine-1-carboxylate]",0.01 to 100 nM,0.01 to 100 nM
"COC(=O)N1CCC(c2ccc3c(c2)CCn2c(OC[C@@H]4COCCO4)cc(=O)c(C)c2-3)CC1 [Compound 80, methyl 4-[4-[[(2S)-1,4-dioxan-2-yl]methoxy]-1-methyl-2-oxo-6,7-dihydrobenzo[a]quinolizin-9-yl]piperidine-1-carboxylate]",0.01 to 100 nM,0.01 to 100 nM
"CCOC(=O)N1CCC(c2ccc3c(c2)CCn2c(OC[C@@H]4COCCO4)cc(=O)c(C)c2-3)CC1 [Compound 81, ethyl 4-[4-[[(2S)-1,4-dioxan-2-yl]methoxy]-1-methyl-2-oxo-6,7-dihydrobenzo[a]quinolizin-9-yl]piperidine-1-carboxylate]",0.01 to 100 nM,0.01 to 100 nM
"Cc1c2n(c(OC[C@@H]3COCCO3)cc1=O)CCc1cc(C3CCN(C(=O)OC(C)C)CC3)ccc1-2 [Compound 82, isopropyl 4-[4-[[(2S)-1,4-dioxan-2-yl]methoxy]-1-methyl-2-oxo-6,7-dihydrobenzo[a]quinolizin-9-yl]piperidine-1-carboxylate]",0.01 to 100 nM,0.01 to 100 nM
"Cc1c2n(c(OC[C@@H]3COCCO3)cc1=O)CCc1cc(C3CCN(C(=O)OCC(F)(F)F)CC3)ccc1-2 [Compound 83, 2,2,2-trifluoroethyl 4-[4-[[(2S)-1,4-dioxan-2-yl]methoxy]-1-methyl-2-oxo-6,7-dihydrobenzo[a]quinolizin-9-yl]piperidine-1-carboxylate]",0.01 to 100 nM,0.01 to 100 nM
"Cc1c2n(c(OC[C@@H]3COCCO3)cc1=O)CCc1cc(N3CC(F)(F)C3)ccc1-2 [Compound 86, 9-(3,3-difluoroazetidin-1-yl)-4-[[(2S)-1,4-dioxan-2-yl]methoxy]-1-methyl-6,7-dihydrobenzo[a]quinolizin-2-one]",0.01 to 100 nM,0.01 to 100 nM
"Cc1c2n(c(OC[C@@H]3COCCO3)cc1=O)CCc1cc(N3CC(F)C3)ccc1-2 [Compound 91, 4-[[(2S)-1,4-dioxan-2-yl]methoxy]-9-(3-fluoroazetidin-1-yl)-1-methyl-6,7-dihydrobenzo[a]quinolizin-2-one]",0.01 to 100 nM,100 to 500 nM
"Cc1c2n(c(OC[C@@H]3COCCO3)cc1=O)CCc1cc(N3CCC3)ccc1-2 [Compound 93, 9-(azetidin-1-yl)-4-[[(2S)-1,4-dioxan-2-yl]methoxy]-1-methyl-6,7-dihydrobenzo[a]quinolizin-2-one]",0.01 to 100 nM,100 to 500 nM
"Cc1c2n(c(OC[C@@H]3COCCO3)cc1=O)CCc1cc(N3CC(n4cccn4)C3)ccc1-2 [Compound 95, 4-[[(2S)-1,4-dioxan-2-yl]methoxy]-1-methyl-9-(3-pyrazol-1-ylazetidin-1-yl)-6,7-dihydrobenzo[a]quinolizin-2-one]",0.01 to 100 nM,100 to 500 nM
